Data on one molecule can be found in US6506580B1, “Splice variants for human 5-HT4 serotonin receptor and their applications, in particular for screening” (Institut National de la Sante et de la Recherche Medicale …, priority 1997, dated 2003).

Holding throughout (type): cell-based
In one test the target is receptor 5-HT4(d) (Homo sapiens, UniProt Q13639). The experiment in a line: cAMP formation in transiently transfected COS-7 cells. Details: The entire coding region of the cDNAs of 5-HT4(a), 5-HT4(b), 5-HT4(c) and 5-T4(d) was subcloned; expressed in transfected cells; host or cells: COS-7 cells, transient, pRC/CMV vector; cDNA amplified from human brain and ileum RNA. The settings on record: COS-7, 1 μM agonist, 15 minutes. The method, then: The entire coding region of the cDNAs of 5-HT4(a), 5-HT4(b), 5-HT4(c) and 5-T4(d) was subcloned into a mammalian expression vector pRC/CMV (Invitrogen, Carlsbad, Calif.). The transfections were carried out using polyethyleneimine (PEI) as described in Boussif et al. (1995). The cells were transfected using a mixture of DNA and of PEI in a ratio of 20 μmol of PEI/mg of DNA in 0.9% NaCl. For the radioligand binding assays, the COS-7 cells were seeded into culture flasks of 1.5×10^4 mm^2 one day before the transfection, at a density of 1×10^7 cells/flask, incubated for six hours with plasmid DNA (150 μg/flask) and collected 48 hours after transfection. For the measurement of cAMP formation, the COS-7 cells were seeded onto twelve-well plates one day before transfection, at a density of 5×10^5 cells/well, incubated for six hours with plasmid DNA (4 to 8 μg/well according to the experiments) and assayed 24 hours after the transfection. […]
To measure intracellular cAMP accumulation, the transiently transfected COS-7 cells were incubated, 24 hours after transfection, in Dulbecco's modified Eagle medium (DMEM) containing 5 mM theophylline, 10 mM HEPES and 10 μM pargyline for 15 minutes at 37° C., in the presence of 5% CO2. […] The cAMP was quantified in the supernatant using a radioimmunological assay (E.R.I.A. assay kit from Pasteur Diagnostics 79830). […]

The next test addresses T1, receptor 5-HT4(a) (Homo sapiens, UniProt Q13639).
T1 construct: The entire coding region of the cDNAs of 5-HT4(a), 5-HT4(b), 5-HT4(c) and 5-T4(d) was subcloned; expressed in transfected cells; host or cells: COS-7 cells, transient, pRC/CMV vector
Described as above. The settings on record: COS-7, 1 μM agonist, 15 minutes. The method, then: (§1) The entire coding region of the cDNAs of 5-HT4(a), 5-HT4(b), 5-HT4(c) and 5-T4(d) was subcloned into a mammalian expression vector pRC/CMV (Invitrogen, Carlsbad, Calif.). The transfections were carried out using polyethyleneimine (PEI) as described in Boussif et al. (1995). The cells were transfected using a mixture of DNA and of PEI in a ratio of 20 μmol of PEI/mg of DNA in 0.9% NaCl. For the radioligand binding assays, the COS-7 cells were seeded into culture flasks of 1.5×10^4 mm^2 one day before the transfection, at a density of 1×10^7 cells/flask, incubated for six hours with plasmid DNA (150 μg/flask) and collected 48 hours after transfection. For the measurement of cAMP formation, the COS-7 cells were seeded onto twelve-well plates one day before transfection, at a density of 5×10^5 cells/well, incubated for six hours with plasmid DNA (4 to 8 μg/well according to the experiments) and assayed 24 hours after the transfection. The cells transfected with the receptor 5-HT4 cDNA constructs were compared with the “blank”-transfected cells, which were exposed to the unmodified pRC/CMV plasmid.
(§2) To measure intracellular cAMP accumulation, the transiently transfected COS-7 cells were incubated, 24 hours after transfection, in Dulbecco's modified Eagle medium (DMEM) containing 5 mM theophylline, 10 mM HEPES and 10 μM pargyline for 15 minutes at 37° C., in the presence of 5% CO2. […] The reaction was stopped by aspiration of the medium and addition of 500 μl of ice-cold ethanol. After one hour at room temperature, the cells were scraped, and everything was collected and freeze-dried. The pellet was resuspended in 350 μl of PBS and centrifuged for 5 min at 300 g. The cAMP was quantified in the supernatant using a radioimmunological assay (E.R.I.A. assay kit from Pasteur Diagnostics 79830). Student's t tests were carried out using the program Quick TEst.

The target in a further test is T2, receptor 5-HT4(b) (Homo sapiens, UniProt Q13639).
T2 construct: The entire coding region of the cDNAs of 5-HT4(a), 5-HT4(b), 5-HT4(c) and 5-T4(d) was subcloned; expressed in transfected cells; host or cells: COS-7 cells, transient, pRC/CMV vector; cDNA amplified from human brain and ileum RNA
Described as above. The settings on record: COS-7, 1 μM agonist, 15 minutes. The method, then:
as §1, §2

The target of a further test is receptor 5-HT4(c) (Homo sapiens, UniProt Q13639). The description is as above. Also noted: The entire coding region of the cDNAs of 5-HT4(a), 5-HT4(b), 5-HT4(c) and 5-T4(d) was subcloned; expressed in transfected cells; host or cells: COS-7 cells, transient, pRC/CMV vector; cDNA amplified from human brain and ileum RNA. To be noted: for increase in the basal cAMP level: 1 μM. On the procedure:
as §1, §2
ML10375 is capable of reducing the cAMP levels in the cells expressing the 5-HT4(c) and 5-HT4(d) isoforms in the absence of any stimulation of the receptor by 5-HT4 agonists. To test the hypothesis that ML10375 may constitute a reverse agonist for the human receptor 5-HT4, the 5-HT4(c) isoform was overexpressed in COS-7 cells in order to increase the frequency of the spontaneously active state of the receptor. The COS-7 cells were transfected with 4 to 8 μg of plasmid DNA per well in order to obtain an increase in the expression levels of the receptor 5-HT4(c). […] (FIG. 6B).
In general terms: Cyclic AMP is a second messenger, typically raised through Gs and lowered through Gi signalling.

The subject of test [1] is “blank”-transfected CHO cells. In words: cAMP formation in control CHO cells. The settings on record: 1 μM. The method, then: The entire coding region of the 5-HT4(c) and 5-HT4(d) cDNAs was subcloned into a mammalian expression vector pRC/CMV (Invitrogen, Carlsbad, Calif.). The CHO cells are stably transfected by electroporation (250 V, 960 μF) with the plasmid PRc/CMV, containing the clone h5-HT4(c) or h5-HT4(d), cleaved with the restriction enzyme Kpn1 (10 μg of plasmid for 10^7 cells). The cells are cultured in HAM-F12 medium supplemented with 10% of heat-inactivated foetal calf serum. […] Twelve days later, the clones are individualized and cultured in 12-well plates. Clone selection is carried out by studying the stimulation of the cAMP formed in the presence of 1 μM serotonin. For the radioligand binding assays or for the measurement of cAMP formation, the cells transfected with the receptor 5-HT4 cDNA constructs were compared with the “blank”-transfected cells, which were exposed to the unmodified pRC/CMV plasmid.
To measure intracellular cAMP accumulation, the stably transfected CHO cells were incubated in the HAM-F12 medium containing 5 mM theophylline, 10 mM HEPES and 10 μM pargyline, for 15 minutes at 37° C. in the presence of 5% CO2. […] The reaction was stopped by aspiration of the medium and addition of 500 μl of ice-cold ethanol. […] The cAMP was quantified in the supernatant using a radio-immunological assay (E.R.I.A. assay kit from Immunotech, Marseilles). […]

The subject of test [2] is “blank”-transfected COS-7 cells. In words: cAMP formation in control COS-7 cells. The settings on record: 1 μM. On the procedure: as §1, §2
For another test, the target named is T3, h5-HT4(d) (Homo sapiens, UniProt Q13639).
T3 construct: The entire coding region of the 5-HT4(c) and 5-HT4(d) cDNAs was subcloned; expressed in transfected cells
The experiment in a line: cAMP formation in stably transfected CHO cells. To be noted: 1 μM, 15 minutes. The method, then:
(§3) The entire coding region of the 5-HT4(c) and 5-HT4(d) cDNAs was subcloned into a mammalian expression vector pRC/CMV (Invitrogen, Carlsbad, Calif.). The CHO cells are stably transfected by electroporation (250 V, 960 μF) with the plasmid PRc/CMV, containing the clone h5-HT4(c) or h5-HT4(d), cleaved with the restriction enzyme Kpn1 (10 μg of plasmid for 10^7 cells). The cells are cultured in HAM-F12 medium supplemented with 10% of heat-inactivated foetal calf serum. […] Twelve days later, the clones are individualized and cultured in 12-well plates. […] For the radioligand binding assays or for the measurement of cAMP formation, the cells transfected with the receptor 5-HT4 cDNA constructs were compared with the “blank”-transfected cells, which were exposed to the unmodified pRC/CMV plasmid.
(§4) To measure intracellular cAMP accumulation, the stably transfected CHO cells were incubated in the HAM-F12 medium containing 5 mM theophylline, 10 mM HEPES and 10 μM pargyline, for 15 minutes at 37° C. in the presence of 5% CO2. […] The reaction was stopped by aspiration of the medium and addition of 500 μl of ice-cold ethanol. After one hour at room temperature, the cells were scraped, and everything was collected and freeze-dried. […] The cAMP was quantified in the supernatant using a radio-immunological assay (E.R.I.A. assay kit from Immunotech, Marseilles). […]

For the next test, the target named is T4, h5-HT4(c) (Homo sapiens, UniProt Q13639).
T4 construct: The entire coding region of the 5-HT4(c) and 5-HT4(d) cDNAs was subcloned; expressed in transfected cells
In words: cAMP formation in stably transfected CHO cells. To be noted: 1 μM, 15 minutes. The method, then:
as §3, §4

Sequence of receptor 5-HT4(c) (Q13639 1-380 isoform Q13639-4): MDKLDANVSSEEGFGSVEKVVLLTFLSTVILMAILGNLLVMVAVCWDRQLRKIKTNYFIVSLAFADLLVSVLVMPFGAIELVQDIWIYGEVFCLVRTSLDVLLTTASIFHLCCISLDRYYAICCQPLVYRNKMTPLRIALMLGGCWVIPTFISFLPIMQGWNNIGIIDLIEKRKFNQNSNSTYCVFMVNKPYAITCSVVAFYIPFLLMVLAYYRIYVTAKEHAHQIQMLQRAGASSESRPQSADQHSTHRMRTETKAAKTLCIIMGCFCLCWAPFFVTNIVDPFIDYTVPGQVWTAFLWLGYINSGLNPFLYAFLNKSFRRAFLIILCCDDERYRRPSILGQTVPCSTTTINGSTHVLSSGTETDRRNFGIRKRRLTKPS
T4 sequence (Q13639 1-380 isoform Q13639-4): as above
T2 sequence (Q13639 whole entry): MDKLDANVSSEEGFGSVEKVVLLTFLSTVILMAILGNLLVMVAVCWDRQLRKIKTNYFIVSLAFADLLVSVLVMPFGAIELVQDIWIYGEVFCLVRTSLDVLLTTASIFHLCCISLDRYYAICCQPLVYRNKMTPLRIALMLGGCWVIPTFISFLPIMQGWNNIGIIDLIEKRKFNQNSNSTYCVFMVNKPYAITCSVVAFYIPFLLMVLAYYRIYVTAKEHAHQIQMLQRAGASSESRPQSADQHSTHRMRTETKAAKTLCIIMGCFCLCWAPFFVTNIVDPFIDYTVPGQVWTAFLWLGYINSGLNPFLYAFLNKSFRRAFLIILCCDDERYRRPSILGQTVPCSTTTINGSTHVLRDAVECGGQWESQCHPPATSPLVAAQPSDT
Sequence of receptor 5-HT4(d) (Q13639 1-360 isoform Q13639-3): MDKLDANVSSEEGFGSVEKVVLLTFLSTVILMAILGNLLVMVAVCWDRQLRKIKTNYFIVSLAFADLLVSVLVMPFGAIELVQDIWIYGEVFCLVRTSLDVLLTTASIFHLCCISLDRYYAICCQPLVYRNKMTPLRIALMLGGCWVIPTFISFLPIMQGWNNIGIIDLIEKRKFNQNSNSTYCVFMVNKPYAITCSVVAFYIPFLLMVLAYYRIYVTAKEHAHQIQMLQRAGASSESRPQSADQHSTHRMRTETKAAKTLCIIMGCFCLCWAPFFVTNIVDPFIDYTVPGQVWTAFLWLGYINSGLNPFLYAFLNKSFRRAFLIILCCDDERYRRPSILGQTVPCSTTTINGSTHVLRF
T3 sequence (Q13639 1-360 isoform Q13639-3): as above
T1 sequence (Q13639 1-387 isoform Q13639-2): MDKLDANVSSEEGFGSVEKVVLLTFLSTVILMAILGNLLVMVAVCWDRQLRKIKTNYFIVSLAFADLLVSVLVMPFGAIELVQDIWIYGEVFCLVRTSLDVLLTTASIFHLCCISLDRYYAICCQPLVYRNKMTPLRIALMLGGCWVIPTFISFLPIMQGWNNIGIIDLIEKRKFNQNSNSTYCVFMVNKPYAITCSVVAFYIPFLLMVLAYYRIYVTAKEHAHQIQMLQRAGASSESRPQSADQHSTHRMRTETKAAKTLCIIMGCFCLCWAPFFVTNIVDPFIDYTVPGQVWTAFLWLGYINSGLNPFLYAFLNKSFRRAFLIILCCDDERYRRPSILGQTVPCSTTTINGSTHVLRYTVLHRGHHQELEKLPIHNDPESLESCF

For `NCCc1c[nH]c2ccc(O)cc12` [5-HT, 5-hydroxytryptamine], the “increase in cAMP concentration” value on receptor 5-HT4(d) stood at 77%; at receptor 5-HT4(a), 82%; at receptor 5-HT4(b) it was 85%; on receptor 5-HT4(c) (COS-7, 1 μM agonist, 15 minutes) it was 64%; on h5-HT4(d), 118%; on h5-HT4(c), 91%. The “increase in the basal cAMP level” value is given as 64% at receptor 5-HT4(c) (COS-7 transfected with 4 μg of plasmid DNA) and “did not significantly increase” at receptor 5-HT4(c) (COS-7 transfected with 8 μg of plasmid DNA). Further, in test [1], the “effect on cAMP” value is given as “no effect”. In addition, in test [2], the “effect on basal adenylate cyclase activity / basal cAMP levels” value is reported as “no effect”.
